From PubChem BioAssay AID602298 (The Scripps Research Institute Molecular Screening Center, 2012)
Calls of active or inactive are those of the source. How the calls were made is not given here.

Target: Melanocortin receptor 4 (Homo sapiens) (UniProt P32245)
Test: PubChem AID 602298
Settings: MC4R stable cells, MTII-stimulated cAMP, TR-FRET

Chain of Melanocortin receptor 4 (Homo sapiens) (P32245 whole entry, looked up): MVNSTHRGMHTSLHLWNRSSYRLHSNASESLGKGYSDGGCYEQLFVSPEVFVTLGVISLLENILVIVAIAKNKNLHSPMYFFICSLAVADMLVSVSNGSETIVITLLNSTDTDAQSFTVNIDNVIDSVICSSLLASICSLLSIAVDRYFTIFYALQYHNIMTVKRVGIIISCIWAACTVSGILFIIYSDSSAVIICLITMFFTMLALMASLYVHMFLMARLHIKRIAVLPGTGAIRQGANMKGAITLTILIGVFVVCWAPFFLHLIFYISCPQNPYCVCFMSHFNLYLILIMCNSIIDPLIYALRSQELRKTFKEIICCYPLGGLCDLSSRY

CCOP(=O)(CCP(=O)(OCC)OCC)OCC.C[CH2][Sn]([Cl])([Cl])[CH2]C
IC50: inactive
